# Experimental data as given in PubChem BioAssay (NCI).
#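 Briefly, cells in 96-well plates were exposed to five compound concentrations for 48 h, and endpoints were estimated by linear interpolation. Definition used: TGI = concentration required for complete inhibition of growth.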
# Legend:
# Experiment in all cases: NCI-60 cell line screen, 48 h
# [1] = test system: 786-0 renal
# [2] = test system: A498 renal
# [3] = test system: A549 NSCLC
# [4] = test system: ACHN renal
# [5] = test system: CCRF-CEM leukemia
# [6] = test system: COLO 205 colon
# [7] = test system: DLD-1 colon
# [8] = test system: DMS 114 small cell lung
# [9] = test system: HCC-2998 colon
# [10] = test system: HCT-116 colon
# [11] = test system: HCT-15 colon
# [12] = test system: HL-60(TB) leukemia
# [13] = test system: HOP-62 NSCLC
# [14] = test system: HOP-92 NSCLC
# [15] = test system: HT29 colon
# [16] = test system: IGROV1 ovarian
# [17] = test system: K-562 leukemia
# [18] = test system: KM12 colon
# [19] = test system: KM20L2 colon
# [20] = test system: LOX IMVI melanoma
# [21] = test system: LXFL 529 NSCLC
# [22] = test system: M14 melanoma
# [23] = test system: M19-MEL melanoma
# [24] = test system: MALME-3M melanoma
# [25] = test system: MOLT-4 leukemia
# [26] = test system: NCI-H226 lung
# [27] = test system: NCI-H23 lung
# [28] = test system: NCI-H460 lung
# [29] = test system: NCI-H522 lung
# [30] = test system: OVCAR-3 ovarian
# [31] = test system: OVCAR-4 ovarian
# [32] = test system: OVCAR-8 ovarian
# [33] = test system: RPMI-8226 leukemia
# [34] = test system: SF-268 CNS
# [35] = test system: SF-295 CNS
# [36] = test system: SK-MEL-2 melanoma
# [37] = test system: SK-MEL-28 melanoma
# [38] = test system: SK-MEL-5 melanoma
# [39] = test system: SN12C renal
# [40] = test system: SNB-19 CNS
# [41] = test system: SNB-75 CNS
# [42] = test system: SNB-78 CNS
# [43] = test system: SW-620 colon
# [44] = test system: TK-10 renal
# [45] = test system: U251 CNS
# [46] = test system: UACC-257 melanoma
# [47] = test system: UACC-62 melanoma
# [48] = test system: UO-31 renal
# [49] = test system: CAKI-1 renal
# [50] = test system: DMS 273 small cell lung
# [51] = test system: EKVX NSCLC
# [52] = test system: OVCAR-5 ovarian
# [53] = test system: RXF 393 renal
# [54] = test system: SF-539 CNS
# [55] = test system: SR leukemia
# [56] = test system: XF 498 CNS
smiles,measurement,setting,value
C=CCc1cc(-c2cc(CC=C)c(O)c(CNCCCl)c2)cc(CNCCCl)c1O,TGI,[1],> 100 µM
same,TGI,[2],52.3 µM
same,TGI,[3],76.1 µM
same,TGI,[4],46.2 µM
same,TGI,[5],81.8 µM
same,TGI,[6],32.1 µM
same,TGI,[7],57 µM
same,TGI,[8],42.2 µM
same,TGI,[9],31.4 µM
same,TGI,[10],34.6 µM
same,TGI,[11],31.1 µM
same,TGI,[12],44.8 µM
same,TGI,[13],33.2 µM
same,TGI,[14],31.2 µM
same,TGI,[15],36.5 µM
same,TGI,[16],51.4 µM
same,TGI,[17],52.1 µM
same,TGI,[18],31.4 µM
same,TGI,[19],33.9 µM
same,TGI,[20],31.6 µM
same,TGI,[21],29.3 µM
same,TGI,[22],32.7 µM
same,TGI,[23],32.3 µM
same,TGI,[24],39.5 µM
same,TGI,[25],53.4 µM
same,TGI,[26],35.4 µM
same,TGI,[27],31.3 µM
same,TGI,[28],37 µM
same,TGI,[29],32.8 µM
same,TGI,[30],43.9 µM
same,TGI,[31],56.7 µM
same,TGI,[32],49.4 µM
same,TGI,[33],61.9 µM
same,TGI,[34],60.5 µM
same,TGI,[35],33.8 µM
same,TGI,[36],35.2 µM
same,TGI,[37],32.9 µM
same,TGI,[38],28.6 µM
same,TGI,[39],44.6 µM
same,TGI,[40],> 100 µM
same,TGI,[41],> 100 µM
same,TGI,[42],> 100 µM
same,TGI,[43],44.3 µM
same,TGI,[44],57.5 µM
same,TGI,[45],30.7 µM
same,TGI,[46],32.4 µM
same,TGI,[47],28.3 µM
same,TGI,[48],28.6 µM
COC(C(O)c1ccc2c(c1)OCO2)P(=O)(c1ccccc1)c1ccccc1 (stereo not given),TGI,[1],> 100 µM
same,TGI,[2],> 100 µM
same,TGI,[4],> 100 µM
same,TGI,[49],> 100 µM
same,TGI,[5],> 100 µM
same,TGI,[7],> 100 µM
same,TGI,[8],> 100 µM
same,TGI,[50],> 100 µM
same,TGI,[51],> 100 µM
same,TGI,[10],> 100 µM
same,TGI,[12],> 100 µM
same,TGI,[13],> 100 µM
same,TGI,[14],> 100 µM
same,TGI,[15],> 100 µM
same,TGI,[16],> 100 µM
same,TGI,[17],> 100 µM
same,TGI,[18],> 100 µM
same,TGI,[22],> 100 µM
same,TGI,[23],> 100 µM
same,TGI,[24],> 100 µM
same,TGI,[25],> 100 µM
same,TGI,[26],> 100 µM
same,TGI,[27],> 100 µM
same,TGI,[28],> 100 µM
same,TGI,[29],> 100 µM
same,TGI,[30],40.3 µM
same,TGI,[31],30.9 µM
same,TGI,[52],> 100 µM
same,TGI,[32],> 100 µM
same,TGI,[53],> 100 µM
same,TGI,[34],> 100 µM
same,TGI,[54],> 100 µM
same,TGI,[36],> 100 µM
same,TGI,[37],> 100 µM
same,TGI,[38],> 100 µM
same,TGI,[39],> 100 µM
same,TGI,[40],> 100 µM
same,TGI,[41],> 100 µM
same,TGI,[42],> 100 µM
same,TGI,[55],> 100 µM
same,TGI,[43],> 100 µM
same,TGI,[44],> 100 µM
same,TGI,[45],> 100 µM
same,TGI,[46],> 100 µM
same,TGI,[47],> 100 µM
same,TGI,[48],> 100 µM
same,TGI,[56],> 100 µM
